Measurements: US20220249399A1, “COMPOSITION COMPRISING AN ANTI-OXIDANT TO PRESERVE CORNEAL TISSUE” (University of lowa Research Foundation, priority 2019, published 2022)
Entries after “also recorded” stand apart in the source; their conditions may differ. Marks after values point to notes of the source that are not given here.

Experiments:
[1] = Stability in water (yellowish discoloration = oxidation to ubiquinone); type: physicochemical; details: shaken in water for 24 h
Method: • γ-CD was dissolved in water at different concentrations, and ubiquinol was added to it while stirring (protected from light). • Stirring continues for 2-5 days. Finally, the formed precipitate (complex) was collected and dried. • Yellow discoloration, which indicates the oxidation of ubiquinol following the formation of the yellow oxidized form (ubiquinone), was noticeable at different degrees depending on the stirring time.
In FIG. 11, the image on the right is 5 mg of CoQ10 added to 10 ml H2O and shaken for 24 hours. […] The instability of ubiquinol in water after both free drug or the complex was stirred in water for 24 h explains why the kneading method that involves the minimum amount of water was chosen form preparation.

[2] = tested on: human donor corneal endothelial cells; assay: Mitochondrial respiration assay (Seahorse XFe24 extracellular flux analyzer) of donor corneal endothelium after storage in supplemented Optisol GS; type: cell-based; details: for ATP Production, Mean (SD) / Maximal Respiration, Mean (SD) / Non-mitochondrial Respiration, Median [IQR] / Proton Leak, Mean (SD) / Spare Respiratory Capacity, Mean (SD) / Basal, Mean (SD): OCR per cell (pmole/min/cell)
Method: Human corneal tissue pairs were obtained by Iowa Lions Eye Bank (ILEB) from nondiabetic donors 60-75 years old and stored in Optisol GS (Bausch+Lomb, Irvine, Calif.) at 4° C. following procurement in accordance with Eye Bank Association of America and ILEB policies and procedures. For 5 days prior to testing, but within 9 days of procurement, one stored tissue from a corneal pair was treated with 10 μM CoQ10, while the mate tissue was treated with diluent only as a control. Descemet membrane and endothelial cell punches were collected and mounted onto the bottom of a Seahorse assay plate (cells facing upward). Mitochondrial respiration was assayed by measuring oxygen consumption using the Seahorse XFe24 Extracellular Flux Analyzer (Agilent Technologies, Santa Clara, Calif.) over 120 minutes (9-minute intervals). Punches were labeled with a nuclear counterstain (DAPI) and remaining tissues were mounted onto slides and labeled with 488A-Annexin V, Ethidium Homodimer III, and Hoechst 33342 (Apoptotic, Necrotic, and Healthy Cells Quantification Kit; Biotium, Fremont, Calif.) to assay cell health. Nuclei were counted in each punch to normalize respirometry data. Immunohistochemistry densitometry was measured using ImageJ software.
Human donor whole globe eye pairs were obtained by Iowa Lions Eye Bank (ILEB) and the anterior portion of the eyes were removed. For 14 days, one cornea was stored from a corneal pair treated with 1 mM ascorbate-2-phosphate, while the mate tissue was treated with diluent only as a control. Descemet membrane and endothelial cell punches were collected and mounted onto the bottom of a Seahorse assay plate (cells facing upward). Mitochondrial respiration was assayed by measuring oxygen consumption using the Seahorse XFe24 Extracellular Flux Analyzer (Agilent Technologies, Santa Clara, Calif.) over 120 minutes (9-minute intervals). Punches were labeled with a nuclear counterstain (DAPI) and nuclei were counted in each punch to normalize respirometry data. […]
Tissue preparation and extracellular flux assays for mitochondrial respiration were performed as described in Greiner et al. (2015). In brief, after pre-stripping the EDM, 3 mm diameter EDM punches were mounted in wells of a XF24 microplate (Agilent Technologies, Santa Clara, Calif.). After acclimation for one hour at 37° C. in non-buffered assay media, metabolic activity of the EDM samples was quantified using a commercial kit (XF Cell Mito Stress Test Kits; Agilent Technologies) on a Seahorse XFe24 extracellular flux analyzer (Agilent Technologies). Following extracellular flux analysis, tissues were labeled fluorescently using a 1:1000 Sytox Green nucleic acid stain in the microtiter plate (Life Technologies, Grand Island, N.Y.) and imaged on an Olympus IX-81 inverted microscope (Olympus America, Center Valley, Pa.) using a FITC filter. Cell counts were determined using Image J (https://imagej.nih.gov/ij/download.html) and used to compute the oxygen consumption rate per cell (OCR; pmole/min/cell). Raw OCR values were used to calculate several different key parameters of metabolic function per manufacturer's directions (Agilent Technologies), as in Aldrich et al. (2017). The parameters and calculations used in this study were the main outcome measures, including basal respiration, ATP-associated oxygen consumption, proton [H^+] leak, maximal respiration, spare respiratory capacity, non-mitochondrial respiration, and coupling efficiency as described in Schneider et al. and Goldstein et al. (2018).
Mitochondrial Respiration Assay: 3 mm punches of central and peripheral endothelium-Descemet membrane complex (EDM) were secured to the bottom of cell culture microplate wells or CECs were grown directly onto microplate.

[3] = tested on: human donor corneal endothelial cells; assay: as above; type: cell-based; details: 1 μM coQ10, tissues in storage
[4] = 10 μM CoQ10 (ubiquinol), 5 days in Optisol GS, vs diluent-treated mate cornea, 13 or 14 paired corneas
[5] = 10 μM ubiquinol vs diluent-treated mate cornea, 5 days, n = 13
[6] = 10 μM ubiquinol, 5 days in Optisol-GS, n = 13
[7] = Example 13: 10 μM ubiquinol, 5 days in Optisol-GS, N=13, vs controls
[8] = palmitate-BSA treated tissues (100 μM), 5 days, n = 7

ubiquinol
stability in water (discoloration) [1]: yellowish discoloration was noticeable
non-mitochondrial respiration ([2]; 1 μM coQ10, among doses 0.5, 1, 5, 7.5 μM): largest increase in non-mitochondrial respiration
mitochondrial spare respiratory capacity ([2]; 1 μM coQ10, tissues in storage (compared with the 10 μM dose)): did not show a bolstering of mitochondrial spare respiratory capacity function
proton leak increased ([2]; 10 μM CoQ10 (ubiquinol), 5 days in Optisol GS at 4° C., vs diluent-treated mate cornea, 13 or 14 paired corneas): 34%
maximal respiration increased [2, 4]: 97%
spare respiratory capacity increased [2, 4]: 133%
ATP Production, Mean Difference: Ubiquinol-Control (95% CI) [2, 5]: −0.0001 (−0.0033, 0.0032)
Basal, Mean Ratio: Ubiquinol/Control (95% CI) [2, 5]: Ratio: 1.12 (0.88, 1.43)
Coupling Efficiency, Mean Difference: Ubiquinol-Control (95% CI) [2, 5]: −0.0655 (−0.1550, 0.0240)
Maximal Respiration, Mean Ratio: Ubiquinol/Control (95% CI) [2, 5]: Ratio: 1.93 (1.31, 2.85)
Non-mitochondrial Respiration, Median Difference: Ubiquinol-Control (95% CI) [2, 5]: 0.000013^# (−0.00255, 0.00123)
Proton Leak, Mean Ratio: Ubiquinol/Control (95% CI) [2, 5]: Ratio: 1.80 (1.01, 3.21)
Spare Respiratory Capacity, Mean Ratio: Ubiquinol/Control (95% CI) [2, 5]: Ratio: 2.74 (1.61, 4.66)
Coupling Efficiency, Mean (SD) [2, 6]: 0.5303 (0.1141)
ATP Production, Mean (SD) [2, 6]: 0.0116 (0.0049)
Maximal Respiration, Mean (SD) [2, 6]: 0.0998 (0.0799)
Non-mitochondrial Respiration, Median [IQR] [2, 6]: 0.00662
Proton Leak, Mean (SD) [2, 6]: 0.0091 (0.0049)
Spare Respiratory Capacity, Mean (SD) [2, 6]: 0.0781 (0.0734)
Basal, Mean (SD) ([2]; 10 μM ubiquinol, 5 days in Optisol-GS, n = 13 matched tissues): 0.0202 (0.0087)
maximal respiration increased [2, 7]: 93%
proton leak increased [2, 7]: 80%
spare respiratory capacity increased [2, 7]: 174%
Basal, Mean (SD) ([2]; palmitate-BSA treated tissues (100 μM), 5 days in Optisol-GS, n = 7 matched tissues): 0.0251 (0.0138)
Coupling Efficiency, Mean (SD) [2, 8]: 0.5376 (0.1891)
ATP Production, Mean (SD) [2, 8]: 0.0155 (0.0090)
Maximal Respiration, Mean (SD) [2, 8]: 0.1102 (0.0309)
Non-mitochondrial Respiration, Median [IQR] [2, 8]: 0.00809
Proton Leak, Mean (SD) [2, 8]: 0.0106 (0.0075)
Spare Respiratory Capacity, Mean (SD) [2, 8]: 0.0833 (0.0212)
oxygen consumption rate (OCR) of CEC ([2]; ubiquinol supplemented vs non-supplemented CEC (FIG. 1)): High OCR; also recorded: increased oxygen consumption rate
proton leak [3]: no increase in proton leak
